Assay results published in patent US12509452B2, “Substituted-isoxazoline-containing aromatic compound, preparation method therefor, herbicidal composition and use thereof” (QINGDAO KINGAGROOT CHEMICAL COMPOUND CO., LTD., priority 2019, dated 2025).

Legend:
Test in all cases: weeding effect in post-emergence stage
Type in all cases: in vivo
Alopecurus japonicus = test system: Alopecurus japonicus
How it was run: (§1)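 Post-emergence greenhouse pot test: 2-3 leaf weeds sprayed (acetone/Tween 80 formulation plus 1.5 liter/ha methyl oleate EC) at 500, 250, 125, 60, 15, 7.5 g a.i./ha; fresh weight control rate read 3 weeks later, graded 0 (<5%) to 5 (>85%); n=3 averages.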

Beckmannia syzigachne = test system: Beckmannia syzigachne
How it was run: as §1

Conyza japonica = test system: Conyza japonica
How it was run: as §1

Rorippa indica = test system: Rorippa indica
How it was run: as §1

SMILES | weeding effect in post-emergence stage, Alopecurus japonicus (activity level) (Alopecurus japonicus; dose 15 g a.i./ha) | weeding effect in post-emergence stage, Beckmannia syzigachne (activity level) (Beckmannia syzigachne; dose 15 g a.i./ha) | weeding effect in post-emergence stage, Conyza japonica (activity level) (Conyza japonica; dose 15 g a.i./ha) | weeding effect in post-emergence stage, Rorippa indica (activity level) (Rorippa indica; dose 15 g a.i./ha) | weeding effect in post-emergence stage, Alopecurus japonicus (activity level) (Alopecurus japonicus; dose 125 g a.i./ha) | weeding effect in post-emergence stage, Beckmannia syzigachne (activity level) (Beckmannia syzigachne; dose 125 g a.i./ha) | weeding effect in post-emergence stage, Conyza japonica (activity level) (Conyza japonica; dose 125 g a.i./ha) | weeding effect in post-emergence stage, Rorippa indica (activity level) (Rorippa indica; dose 125 g a.i./ha)
CCOC(=O)[C@@]1(C2CCC2)CC(c2cc(-n3c(=O)cc(C(F)(F)F)n(C)c3=O)c(F)cc2Cl)=NO1 [126(S)] | 5 (Level 5: growth control rate is above 85%) | 5 (Level 5: growth control rate is above 85%) | 5 (Level 5: growth control rate is above 85%) | 5 (Level 5: growth control rate is above 85%) | – | – | – | –
COC(=O)[C@@]1(F)CC(c2cc(-n3c(=O)cc(C(F)(F)F)n(C)c3=O)c(F)cc2Cl)=NO1 [129(S)] | 5 (Level 5: growth control rate is above 85%) | 5 (Level 5: growth control rate is above 85%) | 5 (Level 5: growth control rate is above 85%) | 5 (Level 5: growth control rate is above 85%) | – | – | – | –
CCOC(=O)[C@]1(CF)CC(c2cc(-n3c(=O)cc(C(F)(F)F)n(C)c3=O)c(F)cc2Cl)=NO1 [132(S)] | 5 (Level 5: growth control rate is above 85%) | 5 (Level 5: growth control rate is above 85%) | 5 (Level 5: growth control rate is above 85%) | 5 (Level 5: growth control rate is above 85%) | – | – | – | –
CCOC(=O)[C@]1(C(F)F)CC(c2cc(-n3c(=O)cc(C(F)(F)F)n(C)c3=O)c(F)cc2Cl)=NO1 [134(S)] | 5 (Level 5: growth control rate is above 85%) | 5 (Level 5: growth control rate is above 85%) | 5 (Level 5: growth control rate is above 85%) | 5 (Level 5: growth control rate is above 85%) | – | – | – | –
CCOC(=O)[C@]1(C(F)(F)F)CC(c2cc(-n3c(=O)cc(C(F)(F)F)n(C)c3=O)c(F)cc2Cl)=NO1 [135(S)] | 5 (Level 5: growth control rate is above 85%) | 5 (Level 5: growth control rate is above 85%) | 5 (Level 5: growth control rate is above 85%) | 5 (Level 5: growth control rate is above 85%) | – | – | – | –
CCOC(=O)[C@@]1(CCF)CC(c2cc(-n3c(=O)cc(C(F)(F)F)n(C)c3=O)c(F)cc2Cl)=NO1 [136(S)] | 5 (Level 5: growth control rate is above 85%) | 5 (Level 5: growth control rate is above 85%) | 5 (Level 5: growth control rate is above 85%) | 5 (Level 5: growth control rate is above 85%) | – | – | – | –
CCOC(=O)[C@@]1(CO)CC(c2cc(-n3c(=O)cc(C(F)(F)F)n(C)c3=O)c(F)cc2Cl)=NO1 [142(S)] | 5 (Level 5: growth control rate is above 85%) | 5 (Level 5: growth control rate is above 85%) | 5 (Level 5: growth control rate is above 85%) | 5 (Level 5: growth control rate is above 85%) | – | – | – | –
CCOC(=O)[C@@]1(C=O)CC(c2cc(-n3c(=O)cc(C(F)(F)F)n(C)c3=O)c(F)cc2Cl)=NO1 [152(S)] | 5 (Level 5: growth control rate is above 85%) | 5 (Level 5: growth control rate is above 85%) | 5 (Level 5: growth control rate is above 85%) | 5 (Level 5: growth control rate is above 85%) | – | – | – | –
CCOC(=O)[C@@]1(C(C)C)CC(c2cc(-n3c(=O)n(C)c(=S)n(C)c3=S)c(F)cc2Cl)=NO1 [204(S)] | 5 (Level 5: growth control rate is above 85%) | 5 (Level 5: growth control rate is above 85%) | 5 (Level 5: growth control rate is above 85%) | 5 (Level 5: growth control rate is above 85%) | – | – | – | –
CCCC[C@@]1(C(=O)OCC)CC(c2cc(-n3c(=O)n(C)c(=S)n(C)c3=S)c(F)cc2Cl)=NO1 [205(S)] | 5 (Level 5: growth control rate is above 85%) | 5 (Level 5: growth control rate is above 85%) | 5 (Level 5: growth control rate is above 85%) | 5 (Level 5: growth control rate is above 85%) | – | – | – | –
CCOC(=O)[C@]1(C(F)(F)F)CC(c2cc(-n3c(=O)n(C)c(=S)n(C)c3=S)c(F)cc2Cl)=NO1 [206(S)] | 5 (Level 5: growth control rate is above 85%) | 5 (Level 5: growth control rate is above 85%) | 5 (Level 5: growth control rate is above 85%) | 5 (Level 5: growth control rate is above 85%) | – | – | – | –
CCOC(=O)[C@@]1(COC=O)CC(c2cc(-n3c(=O)cc(C(F)(F)F)n(C)c3=O)c(F)cc2Cl)=NO1 [218(S)] | 5 (Level 5: growth control rate is above 85%) | 5 (Level 5: growth control rate is above 85%) | 5 (Level 5: growth control rate is above 85%) | 5 (Level 5: growth control rate is above 85%) | – | – | – | –
CCOC(=O)[C@@]1(COC(=O)C(=O)O)CC(c2cc(-n3c(=O)cc(C(F)(F)F)n(C)c3=O)c(F)cc2Cl)=NO1 [220(S)] | 5 (Level 5: growth control rate is above 85%) | 5 (Level 5: growth control rate is above 85%) | 5 (Level 5: growth control rate is above 85%) | 5 (Level 5: growth control rate is above 85%) | – | – | – | –
COC(=O)[C@]1(OC)CC(c2cc(-n3c(=O)cc(C(F)(F)F)n(C)c3=O)c(F)cc2Cl)=NO1 [226(S)] | 5 (Level 5: growth control rate is above 85%) | 5 (Level 5: growth control rate is above 85%) | 5 (Level 5: growth control rate is above 85%) | 5 (Level 5: growth control rate is above 85%) | – | – | – | –
CCOC(=O)[C@]1(CC)CC(c2cc(-n3c(=S)cc(C(F)(F)F)n(C)c3=O)c(F)cc2Cl)=NO1 [228(S)] | – | – | – | – | 5 (Level 5: growth control rate is above 85%) | 5 (Level 5: growth control rate is above 85%) | 5 (Level 5: growth control rate is above 85%) | 5 (Level 5: growth control rate is above 85%)
